Consider five molecules from US6656695B2, “Biomap characterization of biologically active agents” (Bioseek, Inc., priority 2000, dated 2003).

The test system of series [1] is HUVEC cells. In words: optimized inflammatory assay combination: HUVEC treated with TNF-α+IFN-γ+IL-1, readout parameters by cell-based ELISA (biomap). On the set-up: species or system human. Particulars: for activity (alteration of the biomap) in the optimized assay combination: HUVEC, TNF-α+IFN-γ+IL-1, 24 hours, 10 μM NHGA, 200 μM PDTC, 9 μM PD098059, PPM-18 2 μM, AG126 25 μM, p55-Fc 50 ng/ml; for cellular toxicity: either drug alone at higher concentrations (2-fold) than PPM-18 2 μM / AG126 25 μM. As for the experimental part:
Primary human umbilical vein endothelial cells (HUVEC) are used. Other cells that may replace HUVEC in the screen include primary microvascular endothelial cells, aortic or arteriolar endothelial cells or endothelial cell lines such as EAhy926 or E6-[…]-5-2G cells or human telomerase reverse transcriptase-expressing endothelial cells (Simmons, J. Immunol., 148:267, 1992; Rhim, Carcinogenesis 19:673, 1998; Yang, J. Biol. Chem. 274:26141, 1999). 2×10^4 cells/ml are cultured to confluence in EGM-2 (Clonetics). Other media that may replace EGM-2 include EGM (Clonetics) and Ham's F12K medium supplemented with 0.1 mg/ml heparin and 0.03-0.05 mg/ml endothelial cell growth supplement (ECGS) and 10% FBS, or medium M199 (Life Technologies, Inc.) containing 20% fetal bovine serum and 2 ng/ml basic fibroblast growth factor (Jaffe, J. Clin. Invest. 52:2745, 1973; Hoshi, PNAS 81:6413, 1984). The disease environment present in chronic inflammatory diseases, such as Crohn's disease, differs from the normal condition by increased presence of multiple biologically active agents including IL-1, TNF-α, and IFN-γ (Woywodt, 1994; Kakazu, 1999). Other biologically active agents that may be increased in chronic inflammatory disease environments include IL-4, IL-6, IL-8, IL-12, IL-13, IL-18, TGFbeta, and histamine, as well as activated leukocytes and their products (Daig, 1996, Gut 38:216; Woywodt, 1994, Eur. cytokine Netw. 5:387; Kakazu, 1999 Am J. Gastroenterol. 94:2149; Pizarro, 1999, J. Immunol. 162:6829; Monteleone, 1999, J. Immunol. 163:143; […] Enteral Nutr 23:S20; Beck, 1999, […]. Bowel Dis. 5:44). Optimized assay combinations will contain at least two, and preferably three, four or more of these biologically active agents. […] After 24 hours, cultures are washed and evaluated for the presence of the parameters ICAM-1 (1), VCAM-1 (2), E-selectin (3), IL-8 (4), CD31 (5), HLA-DR (6) and MIG (7) by cell-based ELISA as described (Melrose, J. Immunol. 161:2457, 1998). For this, plates are blocked with 1% Blotto for 1 hr, and treated with primary antibodies (obtained from Pharmingen and Becton Dickinson) at 1 ng/ml for 2 hr. After washing, secondary peroxidase-conjugated anti-mouse IgG antibody (Promega) at 1:2500 is applied for 45 min. After washing, TMB substrate (Kierkegaard & Perry) is added and color developed. Development is stopped by addition of H2SO4 and the absorbance at 450 nm (subtracting the background absorbance at 600 nm) is read with a Molecular Dynamics plate reader. The relative expression levels of each parameter are indicated by the OD at 450 nm shown along the y-axis. The mean +/- SD from triplicate samples is shown. […] Confluent cultures of HUVEC cells are treated with TNF-α (5 ng/ml)+IFN-γ (100 ng/ml)+IL-1 (1 ng/ml) in the presence or absence of neutralizing anti-TNF-α or control antibody (Goat anti-IgG). […] In FIG. 3A, the relative expression of each parameter is shown along the y-axis as average value of the OD measured at 450 nm of triplicate samples. The mean +/- SD from triplicate samples are shown. * indicates p<0.05 comparing results obtained with anti-TNF-α to the control. […] A color-coded representation of the biomaps developed from the data is shown. […] J. Physiol. 273(2 Pt 2):[…], 1997), the corticosteroids dexamethasone and prednisolone, echinacea, AA861 (Lee, J. Immunol. 158, 3401, 1997), apigenin ([…], Am. J. Pathol. 147:278, 1995), nordihydroguaiaretic acid (NHGA) (Brennen, Biochem. […] J. Immunol. 27:2172, 1997), pyrrolidine dithiocarbamate (PDTC) (Boyle, Circulation, 98, (19 Suppl):11282, 1998), PPM-18 (Yu, Biochem. […] Biol. Chem. 273:18165, 1998), AG126 (Novogrodsky, Science 264, 1319, 1994), and neutralizing anti-TNF-α antibody. Color-coded representations of the resulting biomaps are shown. Confluent cultures of HUVEC cells are treated with TNF-α (5 ng/ml)+IFN-γ (100 ng/ml)+IL-1 (1 ng/ml) in the presence or absence of agents or buffers at the concentrations indicated in Table 1. […]

Series [2] concerns HUVEC cells. The series can be described thus: multiplex (secondary) assay combinations: HUVEC with single pathway activators or media, biomaps by cell-based ELISA. On the set-up: species or system human. Particulars: TNF-α, IFN-γ, IL-1 alone or combined; 20 μM AA861, 10 μM NHGA; FIG. 5. As for the experimental part: Confluent cultures of HUVEC cells are treated with TNF-α (5 ng/ml), IFN-γ (100 ng/ml), IL-1 (20 ng/ml), the combination of TNF-α+IFN-γ+IL-1, or media (no cytokine) in the presence or absence of neutralizing anti-TNF-α, 20 μM AA861 or 10 μM NHGA. After 24 hours, cultures are washed and evaluated for the cell surface expression of ICAM-1 (1), VCAM-1 (2), E-selectin (3), IL-8 (4), and MIG (5) by cell-based ELISA performed as described in FIG. 1. A color-coded representation of the resulting biomaps derived from the data is shown in FIG. 5, coded as described in FIG. 2B.
Confirmation is performed by evaluating the test agent in assay combinations that include both physiologic and alternative pathway activators. […] After 24 hours, cultures are washed and evaluated for the cell surface expression of ICAM-1 (1), VCAM-1 (2), E-selectin (3), CD31 (4), and MIG (5) by cell-based ELISA performed as described in FIG. 1. […]
In FIG. 7B, confluent cultures of HUVEC cells are treated with TNF-α (5 ng/ml), IFN-γ (100 ng/ml), IL-1 (20 ng/ml), the combination of TNF-α+IFN-γ+IL-1, or media in the presence or absence of p55-Fc. After 24 hours, cultures are washed and evaluated for the cell surface expression of ICAM-1 (1), VCAM-1 (2), E-selectin (3), IL-8 (4), and MIG (5) by cell-based ELISA performed as described in FIG. 1. […]
Background: In an ELISA, binding on a coated surface is turned into a signal by an enzyme label.

`N#CC(C#N)=Cc1ccc([N+](=O)[O-])c(O)c1` [AG126]: in series [1], the “activity (alteration of the biomap) in the optimized assay combination” value (shortened to “activity (alteration of the biomap)”) is recorded as “active compounds” and the cellular toxicity result is “cellular toxicity”.

Turning to `CC(Cc1ccc(O)c(O)c1)C(C)Cc1ccc(O)c(O)c1` (centres unmarked) [NHGA, nordihydroguaiaretic acid], in series [2], the “cytokine signaling pathways targeted” value was “target multiple cytokine signaling pathways”. Besides, the “activity (alteration of the biomap)” value in series [1] is reported as “altered biomaps”.

Regarding `COc1cccc(-c2cc(=O)c3ccccc3o2)c1N` [PD098059], the “activity (alteration of the biomap)” value in series [1] is on record as “altered biomaps”.

For the molecule `S=C(S)N1CCCC1` [PDTC, pyrrolidine dithiocarbamate], the “activity (alteration of the biomap)” value in series [1] was “altered biomaps”.

Take `O=C(NC1=CC(=O)c2ccccc2C1=O)c1ccccc1` [PPM-18]: in series [1], the “activity (alteration of the biomap)” value was “active compounds” and the cellular toxicity result was “cellular toxicity”.
